What was measured:
asexual tachyzoite stage = conditions: prior work (Shamseddin et al., 2015); cited from earlier work
[1] = system: T. gondii ME49 bradyzoites; experiment: Merozoite markers GRA11B/BRP1, immunofluorescence, infected cat intestinal monolayers; assay type: cell-based, Toxoplasma gondii; conditions: 200 μM fatty acid, 5 days of infection
Method: FIGS. 6A-B. Quantification of merozoites in cat tissue culture. A) Cat intestinal organoids were disassociated by trypsin then grown as monolayers on glass slides. Slides were divided into three different groups: not supplemented with fatty acid, supplemented with 200 μM oleic acid or supplemented 200 μM linoleic acid. Monolayers were infected with T. gondii MEM bradyzoites purified from brains of chronic infected mice at a 1:10 MOI. Five days after infection, staining for GRA11B and BRP1 along with DAPI, allowed the percentage of vacuoles positive for GRA11B and BRP1out of the total vacuoles was determined. Total number of parasitophorous vacuoles were counted by positive DAPI staining and confirmed by morphology with DIC. At least 50 parasitophorous vacuoles were counted per replicate. Three biological replicates were counted and on average 35% of the total vacuoles were positive far both GRA11B and BRP1 in the linoleic acid supplemented monolayers. *p-value=0.0126 with N=3 by two-tailed unpaired t test. Straining for both BRP1 and GRA11B was used to ensure that merozoite stages were counted. […] BRP1 is a rhoptry protein that was initially found in bradyzoites; however, it is also expressed in merozoite. […]

Question: For CCCCC/C=C\C/C=C\CCCCCCCC(=O)O [linoleic acid], which “cytotoxicity for the asexual tachyzoite stage” value (asexual tachyzoite stage) is on record?
Answer: Its value is “cytotoxic”.

Question: And the “parasites undergoing sexual development / merozoite stage markers GRA11B and BRP1 (staining)” value [1]?
Answer: Its value is “commonly seen only with linoleic acid supplementation”.
